Values quoted from earlier work, collected in patent US20230226079A1, “METHODS AND COMPOSITIONS FOR TREATMENT OF SOLID TUMORS” (Saint Louis University, priority 2022, published 2023).

Assays:
[1] = in vivo; cited from earlier work
[2] = literature; cited from earlier work
[3] = tested on: different models; settings: cited from earlier work

Molecule	Reported Biology [2]	also measured
COc1cc2c(Oc3ccc(NC(=O)C4(C(=O)Nc5ccc(F)cc5)CC4)cc3F)ccnc2cc1OCCCN1CCOCC1 [Foretinib]		adverse side effects [1]: fatigue, hypertension, and gastrointestinal toxicities
CN1CCN(C2CCN(C(=O)Nc3cc(Oc4ccc(NC(=O)C5(C(=O)Nc6ccc(F)cc6)CC5)c(F)c4)ccn3)CC2)CC1 [Golvatinib]		adverse side effects [1]: supraventricular tachycardia, convulsion, and pulmonary embolism
CO[C@H]1C=C2[C@@H](CC[C@H](O[C@@H]3O[C@H](CO)[C@@H](O)[C@@H](O)[C@H]3O)C2(C)C)[C@]2(C)CC[C@]3(C)[C@@H]([C@H](C)C/C=C/C(C)(C)O)CC[C@@]3(C)[C@H]12 [Karaviloside III]	cytotoxic activity	
C[C@H](C/C=C/C(C)(C)O)[C@H]1CC[C@@]2(C)[C@@H]3[C@@H](O[C@@H]4O[C@H](CO)[C@@H](O)[C@H](O)[C@H]4O)C=C4[C@@H](CC[C@H](O)C4(C)C)[C@]3(C=O)CC[C@]12C [Momordicoside L]	Weak α-glucosidase	
C=C(C)/C=C/C[C@@H](C)[C@H]1CC[C@@]2(C)[C@@H]3[C@@H](O)C=C4[C@@H](CC[C@H](O)C4(C)C)[C@]3(C=O)CC[C@]12C [kuguacin J]		anticancer effect [3]: showed anticancer effect
Karayiloside XI	Antidiabetic	
Sacranoside A	nitric oxide inhibitory	
eleostearic acids		anticancer effect [3]: showed anticancer effect
